# Test results published in patent publication US20220194935A1, “PHENETHYL SUBSTITUTED IMIDAZO[4,5-C]QUINOLINE COMPOUNDS WITH AN N-1 BRANCHED GROUP” (3M INNOVATIVE PROPERTIES COMPANY, priority 2019, published 2022).
# What was measured:
# human TLR7 = biological target: T1, human TLR7 (Homo sapiens, UniProt Q9NYK1); assay: TLR Activation and Specificity, HEK-BLUE-hTLR7 SEAP reporter cells; assay type: cell-based; conditions: 16-20 hours, at least 2× vehicle control, tested 0.01-30 micromolar
# T1 construct: host or cells: HEK293 (HEK-BLUE-hTLR7)
# T1 sequence (Q9NYK1 27-1049): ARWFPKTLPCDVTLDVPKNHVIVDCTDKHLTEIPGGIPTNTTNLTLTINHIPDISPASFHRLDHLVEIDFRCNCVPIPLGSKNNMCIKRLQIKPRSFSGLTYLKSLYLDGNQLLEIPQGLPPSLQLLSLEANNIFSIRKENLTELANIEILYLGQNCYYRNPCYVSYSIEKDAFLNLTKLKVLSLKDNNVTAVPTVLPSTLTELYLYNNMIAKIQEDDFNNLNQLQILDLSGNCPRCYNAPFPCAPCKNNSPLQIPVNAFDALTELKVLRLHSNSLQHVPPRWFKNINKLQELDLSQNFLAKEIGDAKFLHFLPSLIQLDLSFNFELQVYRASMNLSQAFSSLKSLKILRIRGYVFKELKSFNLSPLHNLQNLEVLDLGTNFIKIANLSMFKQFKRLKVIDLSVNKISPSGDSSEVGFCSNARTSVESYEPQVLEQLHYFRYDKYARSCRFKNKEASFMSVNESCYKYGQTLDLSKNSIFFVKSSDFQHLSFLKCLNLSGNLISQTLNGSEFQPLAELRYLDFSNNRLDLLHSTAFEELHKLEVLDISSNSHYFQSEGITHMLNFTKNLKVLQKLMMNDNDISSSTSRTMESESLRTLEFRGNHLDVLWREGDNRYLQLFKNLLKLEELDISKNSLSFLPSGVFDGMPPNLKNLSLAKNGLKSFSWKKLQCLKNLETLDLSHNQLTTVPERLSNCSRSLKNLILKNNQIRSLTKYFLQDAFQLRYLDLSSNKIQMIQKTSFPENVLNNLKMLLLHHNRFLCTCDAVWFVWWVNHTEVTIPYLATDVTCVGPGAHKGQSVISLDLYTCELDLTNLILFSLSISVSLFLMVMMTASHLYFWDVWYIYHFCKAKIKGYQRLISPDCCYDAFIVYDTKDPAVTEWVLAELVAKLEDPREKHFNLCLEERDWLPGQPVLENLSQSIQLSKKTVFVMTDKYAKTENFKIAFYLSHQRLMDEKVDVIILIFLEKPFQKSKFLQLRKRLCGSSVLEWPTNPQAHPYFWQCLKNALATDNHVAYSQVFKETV
# Method: (§1) HEK-BLUE-hTLR7 or hTLR8 reporter cells were obtained from InvivoGen, San Diego, Calif. According to the manufacturer's description, these reporter cells were prepared by co-transfection of HEK293 cells with an inducible secreted embryonic alkaline phosphatase (SEAP) reporter gene and either the human TLR7 or TLR8 gene. The SEAP reporter gene was placed under the control of an IFN-β minimal promoter fused to five NF-κB and AP-1-binding sites. In the presence of a TLR ligand, activation of NF-κB and AP-1 occurs, resulting in a corresponding increase in SEAP levels.
# (§2) In the assay, the HEK cells were grown and maintained using standard cell culture techniques in a growth medium that contained Dulbecco's Modified Eagle Medium (ThermoFisher Scientific Incorporated, Waltham, Mass.) supplemented with 1% penicillin/streptomycin and 10% heat-inactivated Gibco fetal bovine serum (ThermoFisher Scientific). Each compound was solubilized in DMSO to create a 3 millimole (mM) stock solution. The stock solution was then further diluted with the growth medium to prepare serial dilutions. Each test compound was tested at a concentration of 30, 10, 3.3, 1.1, 0.37, 0.12, 0.04, and 0.01 micromolar using a 96-well format with 5×10^4 cells and 200 microliters of growth medium per well.
# (§3) For each compound, hTLR7, hTLR8, and their respective null control HEK cells were screened. DMSO serially diluted into the growth medium served as the vehicle control. Cell culture supernatants containing the SEAP reporter were collected after an incubation period of 16-20 hours in a cell culture incubator (37° C. and 5% CO2), and either analyzed immediately or stored at −80° C. SEAP levels were measured using the colorimetric enzyme assay (QUANTI-BLUE (InvivoGen) according to manufacturer's instructions.
# (§4) Specifically, the minimum effective concentration of each compound (micromolar) was determined as the lowest concentration of the compound that produced a SEAP expression response at least 2× greater than that observed with the vehicle control wells.
# human TLR8 = biological target: T2, human TLR8 (Homo sapiens, UniProt Q9NR97); assay: TLR Activation and Specificity, HEK-BLUE-hTLR8 SEAP reporter cells; assay type: cell-based; conditions: 16-20 hours, at least 2× vehicle control, tested 0.01-30 micromolar
# T2 construct: host or cells: HEK293 (HEK-BLUE-hTLR8)
# T2 sequence (Q9NR97 27-1041): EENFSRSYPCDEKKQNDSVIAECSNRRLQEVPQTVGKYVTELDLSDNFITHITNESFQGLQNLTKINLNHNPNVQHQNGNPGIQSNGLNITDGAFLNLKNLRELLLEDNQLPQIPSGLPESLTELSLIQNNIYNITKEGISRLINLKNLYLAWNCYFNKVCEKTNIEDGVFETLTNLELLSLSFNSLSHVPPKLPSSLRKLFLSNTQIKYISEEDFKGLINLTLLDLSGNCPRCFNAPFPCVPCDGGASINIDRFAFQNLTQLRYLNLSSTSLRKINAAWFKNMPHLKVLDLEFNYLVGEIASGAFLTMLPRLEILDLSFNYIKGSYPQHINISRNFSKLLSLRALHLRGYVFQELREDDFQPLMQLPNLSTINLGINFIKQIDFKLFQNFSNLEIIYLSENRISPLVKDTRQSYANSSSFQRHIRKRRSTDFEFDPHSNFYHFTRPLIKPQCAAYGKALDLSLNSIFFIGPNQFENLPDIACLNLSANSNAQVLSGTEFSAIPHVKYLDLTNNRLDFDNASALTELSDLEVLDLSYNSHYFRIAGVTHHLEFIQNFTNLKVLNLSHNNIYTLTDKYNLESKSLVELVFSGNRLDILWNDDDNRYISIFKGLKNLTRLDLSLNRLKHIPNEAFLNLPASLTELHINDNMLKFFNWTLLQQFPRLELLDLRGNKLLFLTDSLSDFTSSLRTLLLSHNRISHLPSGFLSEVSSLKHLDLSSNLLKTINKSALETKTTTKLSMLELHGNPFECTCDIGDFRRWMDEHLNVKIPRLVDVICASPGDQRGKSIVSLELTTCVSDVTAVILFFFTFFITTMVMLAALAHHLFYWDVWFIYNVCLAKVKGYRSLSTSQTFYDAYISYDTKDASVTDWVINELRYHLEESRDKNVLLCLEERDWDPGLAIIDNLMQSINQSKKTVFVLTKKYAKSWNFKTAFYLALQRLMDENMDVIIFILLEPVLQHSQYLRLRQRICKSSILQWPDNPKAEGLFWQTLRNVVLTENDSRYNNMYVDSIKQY
# Method: as §1, §2, §3, §4
structure (smiles),measurement,setting,value
"Nc1nc2ccccc2c2c1ncn2CCc1ccccc1 [Comparative Example 1, 1-phenethyl-1H-imidazo[4,5-c]quinolin-4-amine, reference compound]","MEC to Produce TLR Activation, TLR 7",human TLR7,1.1 µM
same,"MEC to Produce TLR Activation, TLR 8",human TLR8,>30 µM
"C[C@H](Cc1ccccc1)n1cnc2c(N)nc3ccccc3c21 [Example 1, 1-[(1R)-1-methyl-2-phenyl-ethyl]imidazo[4,5-c]quinolin-4-amine]","MEC to Produce TLR Activation, TLR 7",human TLR7,0.37 µM
same,"MEC to Produce TLR Activation, TLR 8",human TLR8,>30 µM
"CCCC[C@H](Cc1ccccc1)n1cnc2c(N)nc3ccccc3c21 [Example 2, 1-[(1R)-1-benzylpentyl]imidazo[4,5-c]quinolin-4-amine]","MEC to Produce TLR Activation, TLR 7",human TLR7,≤0.01 µM
same,"MEC to Produce TLR Activation, TLR 8",human TLR8,10 µM
"COC[C@@H](Cc1ccccc1)n1cnc2c(N)nc3ccccc3c21 [Example 3, 1-[(1R)-1-benzyl-2-methoxy-ethyl]imidazo[4,5-c]quinolin-4-amine]","MEC to Produce TLR Activation, TLR 7",human TLR7,1.1 µM
same,"MEC to Produce TLR Activation, TLR 8",human TLR8,>30 µM
"CCOC[C@@H](Cc1ccccc1)n1cnc2c(N)nc3ccccc3c21 [Example 4, 1-[(1R)-1-benzyl-2-ethoxy-ethyl]imidazo[4,5-c]quinolin-4-amine]","MEC to Produce TLR Activation, TLR 7",human TLR7,1.1 µM
same,"MEC to Produce TLR Activation, TLR 8",human TLR8,>30 µM
"COC[C@H](Cc1ccccc1)n1cnc2c(N)nc3ccccc3c21 [Example 5, 1-[(1S)-1-benzyl-2-methoxy-ethyl]imidazo[4,5-c]quinolin-4-amine]","MEC to Produce TLR Activation, TLR 7",human TLR7,≤0.01 µM
same,"MEC to Produce TLR Activation, TLR 8",human TLR8,10 µM
"CCOC[C@H](Cc1ccccc1)n1cnc2c(N)nc3ccccc3c21 [Example 6, 1-[(1S)-1-benzyl-2-ethoxy-ethyl]imidazo[4,5-c]quinolin-4-amine]","MEC to Produce TLR Activation, TLR 7",human TLR7,≤0.01 µM
same,"MEC to Produce TLR Activation, TLR 8",human TLR8,3.3 µM
"CCCCOc1ccc(C[C@@H](CCCC)n2cnc3c(N)nc4ccccc4c32)cc1 [Example 7, 1-[(1R)-1-[(4-butoxyphenyl)methyl]pentyl]imidazo[4,5-c]quinolin-4-amine]","MEC to Produce TLR Activation, TLR 7",human TLR7,≤0.01 µM
same,"MEC to Produce TLR Activation, TLR 8",human TLR8,10 µM
